Values quoted from earlier work, collected in US20180273582A1, “SMALL MOLECULE AFFINITY MEMBRANE PURIFICATION SYSTEMS AND USES THEREOF” (UNIVERSITY OF NOTRE DAME, priority 2015, published 2018).

Target: nucleotide binding site (NBS) of antibody
Conditions: antibody NBS region; from reference [43]; read-out: Kd (binding affinity to the conserved NBS region)

SMILES: O=C(O)CCCc1c[nH]c2ccccc12 [IBA, indole-3-butyric acid]
- Kd: 1 to 8 µM
